Test results reported in PMC7932537, “Quantitative profiling of protease specificity” (PLoS Computational Biology, 2021).

What was measured:
MMP-2 = target: T1, MMP-2 (Homo sapiens, UniProt P08253); assay: K(obs) of individual phage substrates (set of 1369); assay type: biochemical; details: MMP2
T1 sequence (P08253 110-660): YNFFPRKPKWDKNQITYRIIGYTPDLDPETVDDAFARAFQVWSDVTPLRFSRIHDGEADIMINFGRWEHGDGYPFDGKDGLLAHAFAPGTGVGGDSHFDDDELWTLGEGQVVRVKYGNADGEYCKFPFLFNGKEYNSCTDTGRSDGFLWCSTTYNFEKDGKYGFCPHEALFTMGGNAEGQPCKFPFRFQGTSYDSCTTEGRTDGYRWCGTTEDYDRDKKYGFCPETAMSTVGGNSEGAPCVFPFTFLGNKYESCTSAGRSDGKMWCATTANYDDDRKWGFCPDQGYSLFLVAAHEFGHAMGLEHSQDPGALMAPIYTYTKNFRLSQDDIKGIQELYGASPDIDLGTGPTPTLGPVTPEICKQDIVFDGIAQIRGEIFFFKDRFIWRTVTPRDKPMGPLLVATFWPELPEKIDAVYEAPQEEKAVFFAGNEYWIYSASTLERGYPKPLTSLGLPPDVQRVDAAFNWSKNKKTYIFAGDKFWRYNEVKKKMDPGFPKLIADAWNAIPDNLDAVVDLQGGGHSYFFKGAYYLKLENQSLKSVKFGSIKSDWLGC

MMP-9 = MMP-9 (Homo sapiens, UniProt P14780); assay: as above; assay type: biochemical; details: MMP9, individual phage substrates, set of 1369 peptides
[1] = individual phage substrates, set of 1369 peptides, cleavage position marked by '-' in the sequence
[2] = '-' marks the cleavage position (P1-P1')
[3] = individual phage substrate from the set of 1369 peptides, cleavage position marked by the dash in the sequence
[4] = dash in sequence marks cleavage position

MMP-9, sequence (P14780 94-707): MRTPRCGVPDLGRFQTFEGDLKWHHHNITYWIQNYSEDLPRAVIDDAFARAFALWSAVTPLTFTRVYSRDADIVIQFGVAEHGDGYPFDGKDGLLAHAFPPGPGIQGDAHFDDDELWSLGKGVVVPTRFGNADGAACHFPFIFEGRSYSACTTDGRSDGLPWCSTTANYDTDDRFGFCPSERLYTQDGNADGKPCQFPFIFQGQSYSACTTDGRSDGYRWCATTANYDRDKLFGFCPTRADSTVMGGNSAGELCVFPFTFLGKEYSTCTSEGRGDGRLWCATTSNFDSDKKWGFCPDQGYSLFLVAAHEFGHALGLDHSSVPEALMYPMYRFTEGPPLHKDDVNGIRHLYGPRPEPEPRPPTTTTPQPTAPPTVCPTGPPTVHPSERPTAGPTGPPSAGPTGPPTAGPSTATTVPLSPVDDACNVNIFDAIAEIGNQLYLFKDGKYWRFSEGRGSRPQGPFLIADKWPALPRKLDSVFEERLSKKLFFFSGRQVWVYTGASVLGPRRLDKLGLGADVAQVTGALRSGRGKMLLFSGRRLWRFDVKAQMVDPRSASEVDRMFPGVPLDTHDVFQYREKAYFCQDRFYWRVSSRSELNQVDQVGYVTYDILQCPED

| Substance | Kobs (MMP-2; [1]) [M⁻¹ s⁻¹] | Kobs (MMP-9; [2]) [M⁻¹ s⁻¹] | Kobs (MMP-2; [3]) [M⁻¹ s⁻¹] | Kobs (MMP-9; [4]) [M⁻¹ s⁻¹] |
| --- | --- | --- | --- | --- |
| GKASN-LYTAS | 3165.09 | 1030.73 | – | – |
| GKFAT-LVTAS | – | – | 56.119 | 0 |
| GKPLP-WTASG | 6131.32 | 5889.62 | – | – |
| GKPNR-LVTAS | – | – | 2761.81 | 1239.69 |
| GKPQN-LRTAS | – | – | 12792.1 | 12792.1 |
| GKTWA-LTASG | 323.705 | 912.511 | – | – |
| GKVHQ-MLTAS | 0 | 27.918 | – | – |
| GKVNN-LVTAS | 517.582 | 201.585 | – | – |
| GKVRN-LTTAS | 10866.7 | 8321.48 | – | – |
| GLAVG-LRTAS | 12792.1 | 4922.1 | – | – |
| GLAYS-LQTAS | – | – | 1561.44 | 2476.66 |
| GLPQA-LLTAS | 12792.1 | 12792.1 | – | – |
| GMVLN-LTASG | 12792.1 | 7015.91 | – | – |
| GMYLN-LKTAS | 0 | 0 | – | – |
| GNADL-IMTAS | – | – | 0 | 0 |
| GNAMR-MVTAS | 0 | 56.119 | – | – |
| GPAGH-LSTAS | – | – | 5889.62 | 951.362 |
| GPAQD-LYTAS | – | – | 0 | 0 |
| GPMQR-LMTAS | 0 | 0 | – | – |
| GPVMR-MSTAS | 0 | 0 | – | – |
| GQAWA-LGTAS | 484.315 | 355.093 | – | – |
| GQHMR-LITAS | 0 | 836.403 | – | – |
| GQPAH-LSTAS | – | – | 10866.7 | 2761.81 |
| GQPFA-LSTAS | 12792.1 | 12792.1 | – | – |
| GQPNF-LTASG | – | – | 2157.02 | 1283.43 |
| GQPRN-LSTAS | – | – | 12792.1 | 12792.1 |

| Substance | Kobs (MMP-2; [1]) [M⁻¹ s⁻¹] | Kobs (MMP-9; [2]) [M⁻¹ s⁻¹] | Kobs (MMP-2; [3]) [M⁻¹ s⁻¹] | Kobs (MMP-9; [4]) [M⁻¹ s⁻¹] |
| --- | --- | --- | --- | --- |
| GQPVP-MLTAS | 7386.83 | 6131.32 | – | – |
| GQVFR-LITAS | 0 | 323.705 | – | – |
| GQVRA-LRTAS | 12792.1 | 12792.1 | – | – |
| GRALA-MQTAS | 3637.04 | 2218.08 | – | – |
| GRAQN-LLTAS | 484.315 | 1071.29 | – | – |
| GRASA-LNTAS | 517.582 | 0 | – | – |
| GRASR-LVTAS | – | – | 551.253 | 0 |
| GRAWG-LITAS | – | – | 3165.09 | 1981.53 |
| GRAWM-MVTAS | – | – | 0 | 27.918 |
| GRHQS-LRTAS | 836.403 | 0 | – | – |
| GRIAL-LTTAS | 7815.03 | 0 | – | – |
| GRLGC-LKTAS | 1112.44 | 113.394 | – | – |
| GRPHP-LSTAS | 12792.1 | 8941.32 | – | – |
| GRPLQ-YRTAS | 12792.1 | 10866.7 | – | – |
| GRPMN-LRTAS | 10866.7 | 12792.1 | – | – |
| GRVAH-LRTAS | 12792.1 | 1112.44 | – | – |
| GRVHR-LSTAS | 0 | 0 | – | – |
| GRVLH-LRTAS | 3850.82 | 2280.5 | – | – |
| GRVWH-LQTAS | 551.253 | 1327.88 | – | – |
| GSAHL-LLTAS | 27.918 | 0 | – | – |
| GSALA-LTTAS | 619.843 | 1196.62 | – | – |
| GSGAK-LIVRT | 0 | 0 | – | – |
| GSGAW-LKKIT | 0 | 0 | – | – |
| GSGFA-LVAKT | – | – | 0 | 323.705 |
| GSGFQ-LRVFT | 0 | 84.609 | – | – |
| GSGHR-LMMGT | – | – | 0 | 0 |

| Substance | Kobs (MMP-2; [1]) [M⁻¹ s⁻¹] | Kobs (MMP-9; [2]) [M⁻¹ s⁻¹] | Kobs (MMP-2; [3]) [M⁻¹ s⁻¹] | Kobs (MMP-9; [4]) [M⁻¹ s⁻¹] |
| --- | --- | --- | --- | --- |
| GSGLA-LKMGT | – | – | 84.609 | 0 |
| GSGLE-LRVNT | 0 | 231.616 | – | – |
| GSGMA-LTHIT | – | – | 84.609 | 84.609 |
| GSGMR-LVLRT | 0 | 0 | – | – |
| GSGNF-LRKMT | 1196.62 | 484.315 | – | – |
| GSGNR-LMRLT | 0 | 0 | – | – |
| GSGNS-LKRRT | – | – | 142.481 | 0 |
| GSGQG-LKVRT | 201.585 | 231.616 | – | – |
| GSGQG-LRMGT | – | – | 0 | 0 |
| GSGSD-LKSKT | – | – | 12792.1 | 355.093 |
| GSGWD-LKRST | – | – | 142.481 | 0 |
| GSGWR-LTVGT | – | – | 0 | 27.918 |
| GSPLD-LKTAS | – | – | 12792.1 | 8941.32 |
| GSPLS-WRTAS | 7815.03 | 6396.07 | – | – |
| GSPVQ-LTTAS | 1816.46 | 1327.88 | – | – |
| GSPVW-LRTAS | 12792.1 | 9740.44 | – | – |
| GTIAH-LHTAS | 10866.7 | 0 | – | – |
| GTIAY-LNTAS | 1870.4 | 0 | – | – |
| GTIDL-LTTAS | 0 | 201.585 | – | – |
| GTIFR-LTASG | 551.253 | 619.843 | – | – |
| GTLAQ-ISTAS | – | – | 0 | 517.582 |
| GTLLD-LITAS | 0 | 0 | – | – |
| GTMMS-LMTAS | 1763.55 | 0 | – | – |
| GTPLG-QITAS | 12792.1 | 5461.43 | – | – |
| GTPSK-LYTAS | – | – | 6131.32 | 2038.8 |
| GTVRH-LSTAS | 6396.07 | 1925.41 | – | – |

| Substance | Kobs (MMP-2; [1]) [M⁻¹ s⁻¹] | Kobs (MMP-9; [2]) [M⁻¹ s⁻¹] | Kobs (MMP-2; [3]) [M⁻¹ s⁻¹] | Kobs (MMP-9; [4]) [M⁻¹ s⁻¹] |
| --- | --- | --- | --- | --- |
| GTVWA-LTTAS | 292.668 | 2218.08 | – | – |
| GVAGA-LYTAS | 2097.28 | 0 | – | – |
| GVAKP-LWTAS | 484.315 | 2280.5 | – | – |
| GVGHN-LRTAS | 142.481 | 231.616 | – | – |
| GVINQ-LRTAS | – | – | 517.582 | 355.093 |
| GVLFH-LSTAS | 0 | 0 | – | – |
| GVLGH-LSTAS | 3438.54 | 0 | – | – |
| GVLHS-LRTAS | 0 | 0 | – | – |
| GVLMR-LNTAS | 0 | 0 | – | – |
| GVMMQ-LVTAS | 0 | 0 | – | – |
| GVPFM-ILTAS | – | – | 484.315 | 4922.1 |
| GVPLN-VKTAS | 5090.5 | 12792.1 | – | – |
| GVPQW-IHTAS | 4335.13 | 5889.62 | – | – |
| GVPSW-LSTAS | 12792.1 | 12792.1 | – | – |
| GVSAR-LVTAS | – | – | 142.481 | 0 |
| GVVHS-FCTAS | 0 | 0 | – | – |
| GWGDR-LTTAS | – | – | 1154.21 | 292.668 |
| GWMHE-LKTAS | 0 | 0 | – | – |
| GWVGH-LSTAS | – | – | 10866.7 | 386.839 |
| GYGLH-LRTAS | 201.585 | 261.974 | – | – |
| GYYGE-LLTAS | 990.764 | 27.918 | – | – |
| HGPMS-LTASG | 10866.7 | 10866.7 | – | – |
| HHPAA-LTASG | 12792.1 | 12792.1 | – | – |
| HLFQW-LTASG | – | – | 7015.91 | 0 |
| HLPTA-LTASG | 12792.1 | 8941.32 | – | – |
| HLVAW-LTASG | 10866.7 | 10866.7 | – | – |
